Format in all cases: biochemical
The target in one test is GSK3β (Homo sapiens, UniProt P49841). The test can be described thus: GSK3β ATP depletion assay. Conditions: read-out: GSK3b IC50. The protocol:
GSK3β ATP Depletion Assay
The activity of GSK3β is measured using a luciferase-luciferin based ATP detection reagent to quantify ATP depletion resulting from kinase-catalyzed phosphoryl transfer to a peptide substrate. Compounds to be tested are dissolved in 100% DMSO and directly distributed into white 384-well plates at 0.5 μl per well. To start the reaction, 10 μl of 10 nM GSK3B kinase and 20 μM biotinylated CREB peptide ([…](pS)YR-NH2) in assay buffer (50 mM TRIS pH 7.5, 15 mM MgCl2, 1 mM DTT, 0.1% BSA) is added into each well. After 15 minutes, 10 μl of 2 μM ATP in assay buffer is added. Final assay concentrations are 5 nM GSK3B, […], 10 μM b-CREB peptide and 2.5% DMSO. The reaction is performed until approximately 50% of the ATP is depleted, then stopped with the addition of 20 μl KinaseGlo (Promega Corporation) solution. The stopped reaction is incubated for 10 minutes and the remaining ATP is detected via luminescence on the Victor2 (Perkin Elmer).

The next test addresses PIM2 (Homo sapiens, UniProt Q9P1W9). The test can be described thus: KinaseGlo Pim2 ATP depletion assay. Here is the method: KinaseGlo Pim2 ATP Depletion Assay
The activity of PIM2 is measured using a luciferase-luciferin based ATP detection reagent to quantify ATP depletion resulting from kinase-catalyzed phosphoryl transfer to a peptide substrate. Compounds to be tested are dissolved in 100% DMSO and directly distributed into white 384-well plates at 0.5 piper well. To start the reaction, 10 μl of 10 nM Pim2 kinase and 20 μM BAD peptide (RSRHSSYPAGT-OH) in assay buffer (50 mM HEPES pH 7.5, 5 mM MgCl2, 1 mM DTT, 0.05% BSA) is added into each well. After 15 minutes, 10 μl of 8 μM ATP in assay buffer is added. Final assay concentrations are 5 nM PIM2, 4 μM ATP, 10 μM BAD peptide and 2.5% DMSO. The reaction is performed until approximately 50% of the ATP is depleted, then stopped with the addition of 20 μl KinaseGlo Plus (Promega Corporation) solution. The stopped reaction is incubated for 10 minutes and the remaining ATP detected via luminescence on the Victor2 (Perkin Elmer).

The next test addresses PIM3 (Homo sapiens, UniProt Q86V86). Kind of test: KinaseGlo Pim3 ATP depletion assay. Here is the method:
KinaseGlo Pim3 ATP Depletion Assay
The activity of PIM3 is measured using a luciferase-luciferin based ATP detection reagent to quantify ATP depletion resulting from kinase-catalyzed phosphoryl transfer to a peptide substrate. Compounds to be tested are dissolved in 100% DMSO and directly distributed into white 384-well plates at 0.5 μl per well. To start the reaction, 10 μl of 10 nM Pim3 kinase and 200 μM BAD peptide (RSRHSSYPAGT-OH) in assay buffer (50 mM HEPES pH 7.5, 5 mM MgCl2, 1 mM DTT, 0.05% BSA) is added into each well. After 15 minutes, 10 μl of 80 μM ATP in assay buffer is added. Final assay concentrations are 5 nM […], 40 μM ATP, 100 μM BAD peptide and 2.5% DMSO. The reaction is performed until approximately 50% of the ATP is depleted, then stopped by the addition of 20 μl KinaseGlo Plus (Promega Corporation) solution. The stopped reaction is incubated for 10 minutes and the remaining ATP detected via luminescence on the Victor2 (Perkin Elmer).

In the next test the target is PIM1 (Homo sapiens, UniProt P11309). Kind of test: KinaseGlo Pim1 ATP depletion assay. The protocol:
KinaseGlo Pim1 ATP Depletion Assay
The activity of PIM1 is measured using a luciferase-luciferin based ATP detection reagent to quantify ATP depletion resulting from kinase-catalyzed phosphoryl transfer to a peptide substrate. Compounds to be tested are dissolved in 100% DMSO and directly distributed into white 384-well plates at 0.5 μA per well. To start the reaction, 10 μA of 5 nM Pim1 kinase and 80 μM BAD peptide (RSRHSSYPAGT-OH) in assay buffer (50 mM HEPES pH 7.5, 5 mM MgCl2, 1 mM DTT, 0.05% BSA) is added into each well. After 15 minutes, 10 μl of 40 μM ATP in assay buffer is added. Final assay concentrations are 2.5 nM PIM1, 20 μM ATP, 40 μM BAD peptide and 2.5% DMSO. The reaction is performed until approximately 50% of the ATP is depleted, then stopped with the addition of 20 μA KinaseGlo Plus (Promega Corporation) solution. The stopped reaction is incubated for 10 minutes and the remaining ATP detected via luminescence on the Victor2 (Perkin Elmer). […] IC50, the half maximal inhibitory concentration, represents the concentration of a test compound that is required for 50% inhibition of its target in vitro.

This note sets out measurements from patent US20130109682A1, “CYCLIC ETHER COMPOUNDS USEFUL AS KINASE INHIBITORS” (NOVARTIS AG, priority 2010, published 2013).

Broadly, the IC50 is the midpoint of a concentration-inhibition curve.

Sequence of PIM1 (P11309 whole entry): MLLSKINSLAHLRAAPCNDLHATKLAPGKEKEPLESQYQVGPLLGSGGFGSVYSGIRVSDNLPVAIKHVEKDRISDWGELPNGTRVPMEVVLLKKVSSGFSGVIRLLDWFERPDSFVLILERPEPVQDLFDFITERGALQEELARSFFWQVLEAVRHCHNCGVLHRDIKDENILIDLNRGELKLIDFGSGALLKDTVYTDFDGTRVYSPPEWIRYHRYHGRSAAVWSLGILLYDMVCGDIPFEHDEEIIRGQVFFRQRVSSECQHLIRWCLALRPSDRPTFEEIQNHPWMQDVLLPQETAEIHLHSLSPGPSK
Sequence of GSK3β (P49841 whole entry, species assumed): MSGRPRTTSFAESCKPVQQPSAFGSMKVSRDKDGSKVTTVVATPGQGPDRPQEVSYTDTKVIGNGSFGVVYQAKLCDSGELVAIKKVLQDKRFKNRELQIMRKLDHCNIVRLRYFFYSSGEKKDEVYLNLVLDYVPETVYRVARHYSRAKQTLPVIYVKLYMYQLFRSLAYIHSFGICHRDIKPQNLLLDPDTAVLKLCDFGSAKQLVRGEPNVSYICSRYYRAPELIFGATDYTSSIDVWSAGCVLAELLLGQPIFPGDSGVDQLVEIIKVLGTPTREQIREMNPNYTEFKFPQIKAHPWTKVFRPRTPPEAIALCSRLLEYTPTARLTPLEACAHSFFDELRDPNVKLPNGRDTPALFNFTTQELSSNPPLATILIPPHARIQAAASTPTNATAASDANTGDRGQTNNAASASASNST
Sequence of PIM2 (Q9P1W9 whole entry): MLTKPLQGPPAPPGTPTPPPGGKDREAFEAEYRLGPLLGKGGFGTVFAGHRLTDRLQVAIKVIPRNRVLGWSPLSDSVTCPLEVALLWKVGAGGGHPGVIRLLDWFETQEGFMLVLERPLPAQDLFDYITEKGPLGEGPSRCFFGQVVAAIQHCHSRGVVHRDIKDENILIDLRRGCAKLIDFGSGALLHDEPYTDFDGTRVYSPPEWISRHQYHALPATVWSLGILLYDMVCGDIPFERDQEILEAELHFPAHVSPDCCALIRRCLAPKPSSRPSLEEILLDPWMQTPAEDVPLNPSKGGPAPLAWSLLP

In the case of `C[C@@H]1O[C@H](c2ccncc2NC(=O)c2ccc(F)c(-c3c(F)cccc3F)n2)C[C@H](O)[C@]1(O)CO` [Example 19, 6-(2,6-difluorophenyl)-N-(4-((2S,4S,5R,6S)-4,5-dihydroxy-5-(hydroxymethyl)-6-methyltetrahydro-2H-pyran-2-yl)pyridin-3-yl)-5-fluoropicolinamide], the IC50 on GSK3β amounted to 703 nM; against PIM2, 10 nM; at PIM3, 4 nM; against PIM1, 1 nM.
On to `C[C@H]1O[C@@H](c2ccncc2NC(=O)c2ccc(F)c(-c3c(F)cccc3F)n2)C[C@@H](O)[C@@]1(O)CO` [Example 20, 6-(2,6-difluorophenyl)-N-(4-((2R,4R,5S,6R)-4,5-dihydroxy-5-(hydroxymethyl)-6-methyltetrahydro-2H-pyran-2-yl)pyridin-3-yl)-5-fluoropicolinamide], for which the IC50 amounted to 2560 nM at GSK3β, 103 nM against PIM2, 32 nM against PIM3 and 8 nM against PIM1.
Taken in the same sequence, the figures for `N#C[C@H]1OC(c2ccncc2NC(=O)c2ccc(F)c(-c3c(F)cccc3F)n2)=C[C@@H](O)[C@@H]1O` [Example 21, N-(4-((2R,3S,4R)-2-cyano-3,4-dihydroxy-3,4-dihydro-2H-pyran-6-yl)pyridin-3-yl)-6-(2,6-difluorophenyl)-5-fluoropicolinamide] were 1140 nM, 9 nM, 3 nM and 1 nM.
Regarding `N#CC[C@H]1O[C@@H](c2ccncc2NC(=O)c2ccc(C#N)c(-c3c(F)cccc3F)n2)CC[C@@H]1O` [Example 45, 5-cyano-N-(4-((2R,5S,6R)-6-(cyanomethyl)-5-hydroxytetrahydro-2H-pyran-2-yl)pyridin-3-yl)-6-(2,6-difluorophenyl)picolinamide], the half-inhibitory concentration (IC50) is 4310 nM on GSK3β, 1270 nM on PIM2, 338 nM against PIM3 and 68 nM against PIM1.
On to `O=C(Nc1cnccc1[C@@]1(C(F)(F)F)C[C@@H](O)C=CO1)c1ccc(F)c(-c2c(F)cccc2F)n1` [Example 48, 6-(2,6-difluorophenyl)-5-fluoro-N-(4-((2R,4R)-4-hydroxy-2-(trifluoromethyl)-3,4-dihydro-2H-pyran-2-yl)pyridin-3-yl)picolinamide], for which the IC50 on GSK3β was 3620 nM; against PIM2 it was 19600 nM; at PIM3 it was 1770 nM; at PIM1, 72 nM.
Regarding `O=C(Nc1cnccc1[C@]1(C(F)(F)F)C[C@H](O)C=CO1)c1ccc(F)c(-c2c(F)cccc2F)n1` [Example 49, 6-(2,6-difluorophenyl)-5-fluoro-N-(4-((2S,4S)-4-hydroxy-2-(trifluoromethyl)-3,4-dihydro-2H-pyran-2-yl)pyridin-3-yl)picolinamide], the IC50 stood at 210 nM at GSK3β, 1420 nM on PIM2, 73 nM against PIM3 and 27 nM against PIM1.
For `O=C(Nc1cnccc1[C@]1(C(F)(F)F)C[C@H](O)CCO1)c1ccc(F)c(-c2c(F)cccc2F)n1` [Example 50, 6-(2,6-difluorophenyl)-5-fluoro-N-(4-((2S,4R)-4-hydroxy-2-(trifluoromethyl)tetrahydro-2H-pyran-2-yl)pyridin-3-yl)picolinamide] the same measures were 196 nM, 2130 nM, 110 nM and 28 nM.
Take `O=C(Nc1cnccc1[C@@]1(C(F)(F)F)CCCCO1)c1ccc(F)c(-c2c(F)cccc2F)n1` [Example 51, (R)-6-(2,6-difluorophenyl)-5-fluoro-N-(4-(2-(trifluoromethyl)tetrahydro-2H-pyran-2-yl)pyridin-3-yl)picolinamide]: the IC50 on GSK3β came out at 3720 nM; on PIM2, 7360 nM; against PIM3, 617 nM; against PIM1, 54 nM.
For `O=C(Nc1cnccc1[C@]1(C(F)(F)F)CCCCO1)c1ccc(F)c(-c2c(F)cccc2F)n1` [Example 52, (S)-6-(2,6-difluorophenyl)-5-fluoro-N-(4-(2-(trifluoromethyl)tetrahydro-2H-pyran-2-yl)pyridin-3-yl)picolinamide] the same measures were 695 nM, 4220 nM, 124 nM and 29 nM.
For `O=C(Nc1cnccc1[C@@]1(C(F)(F)F)C[C@@H](O)CCO1)c1ccc(F)c(-c2c(F)cccc2F)n1` [Example 53, 6-(2,6-difluorophenyl)-5-fluoro-N-(4-((2R,4S)-4-hydroxy-2-(trifluoromethyl)tetrahydro-2H-pyran-2-yl)pyridin-3-yl)picolinamide], the IC50 on GSK3β came out at 3120 nM; at PIM2 it was 10300 nM; at PIM3 it was 847 nM; at PIM1, 78 nM.
For `NC(=O)C[C@H]1O[C@@H](c2ccncc2NC(=O)c2ccc(F)c(-c3c(F)cccc3F)n2)C[C@@H](O)[C@@H]1O` [Example 159, N-(4-((2R,4R,5S,6R)-6-(2-amino-2-oxoethyl)-4,5-dihydroxytetrahydro-2H-pyran-2-yl)pyridin-3-yl)-6-(2,6-difluorophenyl)-5-fluoropicolinamide], the IC50 worked out at 6640 nM on PIM2 and 890 nM against PIM3.
In the case of `CC[C@H]1O[C@@H](c2ccncc2NC(=O)c2c[nH]cc(-c3ccccc3)c2=O)C[C@@H](O)[C@@H]1O` [Example 170, N-(4-((2R,4R,5S,6R)-6-ethyl-4,5-dihydroxytetrahydro-2H-pyran-2-yl)pyridin-3-yl)-4-oxo-5-phenyl-1,4-dihydropyridine-3-carboxamide], the IC50 was 3580 nM on GSK3β, 11800 nM at PIM2, 1320 nM against PIM3 and 1450 nM against PIM1.
Take `O=C(Nc1cnccc1[C@@H]1C[C@H](O)[C@]2(O)CCCC[C@@H]2O1)c1c[nH]cc(-c2ccccc2)c1=O` [Example 171, N-(4-((2S,4S,4aR,8aS)-4,4a-dihydroxyoctahydro-2H-chromen-2-yl)pyridin-3-yl)-4-oxo-5-phenyl-1,4-dihydropyridine-3-carboxamide]: the IC50 on GSK3β is greater than 25000 nM; on PIM2 it was greater than 25000 nM; against PIM3, 10800 nM; on PIM1, 8370 nM.
As to `Nc1cnc(-c2c(F)cccc2F)nc1C(=O)Nc1cnccc1[C@H]1C[C@@H](O)[C@@]2(O)CCCC[C@H]2O1` [Example 172, 5-amino-2-(2,6-difluorophenyl)-N-(4-((2R,4R,4aS,8aR)-4,4a-dihydroxyoctahydro-2H-chromen-2-yl)pyridin-3-yl)pyrimidine-4-carboxamide], the IC50 at GSK3β was 21 nM; at PIM2, 3.1 nM; on PIM3, 3.1 nM; against PIM1 it was 2.2 nM.
